Values of other authors, collected in patent US20200254068A1, “METHODS FOR TREATING TRAUMATIC BRAIN INJURY” (LOMA LINDA UNIVERSITY, priority 2017, published 2020).

Conditions: given acutely, goal of reducing cerebral edema

Row | SMILES | outcome in clinical TBI trials | mortality rate in clinical TBI trials
1 | CC(=O)[C@H]1CC[C@H]2[C@@H]3CCC4=CC(=O)CC[C@]4(C)[C@H]3CC[C@]12C [progesterone] | unsuccessful | 
2 | C[C@@H]1C[C@H]2[C@@H]3CCC4=CC(=O)C=C[C@]4(C)[C@@]3(F)[C@@H](O)C[C@]2(C)[C@@]1(O)C(=O)CO [dexamethasone] |  | increase the mortality rate
